{"source": "patent US20240366644A1", "about": "“ANTI-INFLAMMATORY APPLICATION OF GINSENOSIDE RD” (priority 2022, published 2024)", "key": {"[1]": {"system": "mice infected with COVID-19 Delta virus", "test": "Lung histopathology of mice infected with COVID-19 Delta virus", "format": "in vivo, hACE2 transgenic C57BL/6 mice", "conditions": "number of mice with this degree (four per group); 5 mg/kg gavage once a day, five days"}, "[2]": {"system": "COVID-19 Delta virus-infected mice", "test": "IL-1β and MCP-1 expression (RT-qPCR) in lung homogenates of COVID-19 Delta virus-infected mice", "format": "in vivo, hACE2 transgenic C57BL/6 mice", "conditions": "mRNA, blank group 1.00; 5 mg/kg gavage; Day 5 of infection"}, "[3]": {"system": "mice with acute lung injury", "test": "Inflammatory factors (ELISA) in lung tissue and alveolar lavage fluid of mice with LPS acute lung injury", "format": "in vivo, Balb/c mice", "conditions": "5 mg/kg intraperitoneal 1 h before LPS; 24 h after modeling", "procedure": "Balb/c male mice, weighing 20-22 g, were randomly divided into five groups according to body weights, with eight mice in each group: a blank control group (propylene glycol-0.5% carboxymethylcellulose sodium), a model group (LPS, 15 mg/kg), a ginsenoside Rd low-dose group (10 mg/kg), a ginsenoside Rd high-dose group (20 mg/kg), and a Dexamethasone group (5 mg/kg). Mice in each group were intraperitoneally injected; after 1 h of administration, except for the blank control group, the mice in each group were intratracheally instilled with 20 μg of LPS for modeling; and the blank control group was intratracheally instilled with an equal volume of PBS.\nAfter 1 h of administration, a mouse ALI model was established; each mouse was intraperitoneally injected with sodium pentobarbital at 30 mg/kg, anesthetized and fixed on an operating table dorsally; skin preparation was carried out on the neck; the skin was incised to expose the trachea; 20 μg of LPS was instilled into the trachea using a microglass syringe; and then the mouse was gently rotated head up on the operating table, such that the instilled liquid was evenly distributed in the mouse lungs, and the skin incision was sutured.\nAfter 24 h of modeling, anesthetized mice were intraperitoneally injected with sodium pentobarbital at 30 mg/kg; lung tissues of the mice were taken and rinsed repeatedly in pre-cooled normal saline; the lung tissues were blood-removed, wiped with filter paper, weighed, and added with normal saline according to a ratio of 1:9 (W:V=1 g:9 ml); a tissue homogenate was prepared with a homogenization machine under an ice water bath; and a supernatant of mouse lung tissue homogenate was taken.\nThe mouse was anesthetized, and the trachea was separated; the whole lung was lavaged with 0.5 ml of pre-cooled normal saline, stayed for 1 min, and slowly pumped back with a syringe, and this process was repeated three times; and BLAF was collected, and centrifuged for 15 min at 4° C. and 1600 rpm/min.\nIn strict accordance with the operating instructions of an enzyme-linked immunosorbent assay kit (ELISA), the contents of TNF-α, IL-1β, IL-6 and IL-18 in the supernatant of mouse lung tissue homogenate and the BLAF supernatant were detected."}, "[4]": {"system": "xylene-induced swelling of mouse ears", "test": "Xylene-induced swelling of mouse ears", "format": "in vivo, Kunming mice", "procedure": "[…] KM mice, weighing 18-22 g, were randomly grouped, with ten mice in each group. The groups include a model group, a positive control group (Indomethacin, 10 mg/kg), a ginsenoside Rd low-dose group (5 mg/kg), and a ginsenoside Rd high-dose group (10 mg/kg). After 30 min of gavage administration of mice (the model group was administrated with the equal volume of 0.5% sodium carboxymethylcellulose by gavage), 0.03 ml of xylene was evenly applied to both sides of the right ear of each mouse in each group to cause inflammations on both sides, and the left ear of the mouse was not applied as a control. After 4 h, the mouse was killed by dislocation of cervical vertebra, the two ears of the mouse were cut off along the auricle, round ear slices of the same size (a diameter of 6 mm) were taken at the same position of the left and right ears and weighed respectively, a mass difference of the two ear slices was used as an ear swelling degree, and a swelling inhibition rate was calculated."}, "[5]": {"system": "Chronic Obstructive Pulmonary Disease in Rats", "test": "Serum TNF-α and IL-8 in rats with chronic obstructive pulmonary disease (LPS + smoking)", "format": "in vivo, SD rats", "conditions": "2.5 mg/kg gavage", "procedure": "After adaptive feeding (20-25° C., a humidity of 50-60%) for 1 week, the rats were randomly divided into a blank group, a model group, a positive control group, a ginsenoside Rd high-dose group, and a ginsenoside Rd low-dose group, with ten rats in each group.\nModel group: on the Day 1 and Day 14, each rat was intraperitoneally injected with 10% chloral hydrate (300 mg/kg) for anesthesia; the head was fixed in a low position; the glottis was exposed; lipopolysaccharide was quickly injected into the trachea; and the rat was kept upright, and swung left and right for 10-20 s, such that the lipopolysaccharide was evenly distributed in the two lungs. On the Days 2-13, and 15-28, the lungs were smoked in a closed organic glass box for 30 min every day, with 15 cigarettes per day.\nPositive control group: the animal was anesthetized, and intratracheally injected with lipopolysaccharide, wherein smoking conditions and time were the same as those of the model group; and after tracheal injection of lipopolysaccharide for two weeks, the animal was administrated with Simvastatin by gavage (2.5 mg/kg), and killed after six weeks, and serum was collected.\nIn accordance with the instructions, the levels of TNF-α and IL-8 in the serum were detected by enzyme-linked immunosorbent assay. The data was expressed as x±s, p<0.05, which meant that it was statistically significant."}, "[6]": {"system": "Chronic Obstructive Pulmonary Disease in Rats", "test": "Lung pathomorphology of rats with chronic obstructive pulmonary disease", "format": "in vivo, SD rats", "conditions": "po, 2.5 mg/kg"}, "[7]": {"conditions": "10 mg/kg gavage 30 min before xylene, 4 h after xylene"}}}
{"smiles": "C[C@@H]1C[C@H]2[C@@H]3CCC4=CC(=O)C=C[C@]4(C)[C@@]3(F)[C@@H](O)C[C@]2(C)[C@@]1(O)C(=O)CO", "note": "[Dexamethasone, reference compound]", "values": [{"measurement": "Interstitial pneumonia Mild", "setting": "[1]", "value": 3}, {"measurement": "Interstitial pneumonia Moderate", "setting": "[1]", "value": 1}, {"measurement": "Interstitial pneumonia Severe", "setting": "[1]", "value": 0}, {"measurement": "Pulmonary hemorrhage Mild", "setting": "[1]", "value": 3}, {"measurement": "Pulmonary hemorrhage Moderate", "setting": "[1]", "value": 1}, {"measurement": "Pulmonary hemorrhage Severe", "setting": "[1]", "value": 0}, {"measurement": "IL-1β expression level in lung homogenate", "setting": "[2]", "value": "9.26 ± 10.27"}, {"measurement": "MCP-1 expression level in lung homogenate", "setting": "[2]", "value": "6.27 ± 8.20"}, {"measurement": "IL-1β in alveolar lavage fluid", "setting": "[3]", "value": "58.56 ± 16.24", "unit": "ng/L"}, {"measurement": "IL-1β in lung tissue", "setting": "[3]", "value": "48.76 ± 12.76", "unit": "ng/L"}, {"measurement": "IL-6 in alveolar lavage fluid", "setting": "[3]", "value": "36.89 ± 6.16", "unit": "ng/L"}, {"measurement": "IL-6 in lung tissue", "setting": "[3]", "value": "49.73 ± 16.08", "unit": "ng/L"}, {"measurement": "IL-18 in alveolar lavage fluid", "setting": "[3]", "value": "56.38 ± 9.40", "unit": "ng/L"}, {"measurement": "IL-18 in lung tissue", "setting": "[3]", "value": "49.06 ± 15.41", "unit": "ng/L"}, {"measurement": "TNF-α in alveolar lavage fluid", "setting": "[3]", "value": "222.58 ± 60.91", "unit": "ng/L"}, {"measurement": "TNF-α in lung tissue", "setting": "[3]", "value": "58.64 ± 10.65", "unit": "ng/L"}]}
{"smiles": "COc1ccc2c(c1)c(CC(=O)O)c(C)n2C(=O)c1ccc(Cl)cc1", "note": "[Indomethacin, reference compound]", "values": [{"measurement": "Ear mass difference", "setting": "[4]; [7]", "value": "10.87 ± 0.53", "unit": "mg"}, {"measurement": "Swelling degree", "setting": "[4]; [7]", "value": "6.48 ± 1.89 (mg) (%)"}, {"measurement": "inhibition at 10 mg/kg", "setting": "[4]; Mus musculus, po, ear swelling, 10 mg/kg gavage, read-out: Inhibition rate", "value": 40.3, "unit": "%"}]}
{"smiles": "CCC(C)(C)C(=O)O[C@H]1C[C@@H](C)C=C2C=C[C@H](C)[C@H](CC[C@@H]3C[C@@H](O)CC(=O)O3)[C@H]21", "note": "[Simvastatin, reference compound]", "values": [{"measurement": "IL-8 in serum", "setting": "[5]", "value": "22.65 ± 11.56"}, {"measurement": "TNF-α in serum", "setting": "[5]", "value": "11.71 ± 13.27"}, {"measurement": "Epithelial cell necrosis Mild", "setting": "[6]", "value": 7}, {"measurement": "Epithelial cell necrosis Moderate", "setting": "[6]", "value": 3}, {"measurement": "Epithelial cell necrosis Severe", "setting": "[6]", "value": 0}, {"measurement": "Interstitial inflammatory cell infiltration Mild", "setting": "[6]", "value": 6}, {"measurement": "Interstitial inflammatory cell infiltration Moderate", "setting": "[6]", "value": 4}, {"measurement": "Interstitial inflammatory cell infiltration Severe", "setting": "[6]", "value": 0}]}
